Tested on: P12-Ichikawa
Test: cell viability relative to DMSO control; higher = less cytotoxic
Conditions: 48 h
Method in brief: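 Before seeding, each leukemia line was adapted for at least four passages in each medium. NOMO1 or SEM cells (500 cells/well) and P12-Ichikawa cells (1000 cells/well) went into 1536-well plates at 5 μl, then received library compounds in DMSO by pin dosing across 11 threefold concentrations, 47 μM to 0.79 nM. Readout was CellTiter-Glo One luminescence after 48 h at 37°C, and viability is given as a per-plate percentage of DMSO wells, with cell-free wells as background.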

[1] = HPLM + 10% dialyzed FBS, 0.000781 µM
[2] = HPLM + 10% dialyzed FBS, 0.00234 µM
[3] = HPLM + 10% dialyzed FBS, 0.00702 µM
[4] = HPLM + 10% dialyzed FBS, 0.0211 µM
[5] = HPLM + 10% dialyzed FBS, 0.0632 µM
[6] = HPLM + 10% dialyzed FBS, 0.19 µM
[7] = HPLM + 10% dialyzed FBS, 0.569 µM
[8] = HPLM + 10% dialyzed FBS, 1.71 µM
[9] = HPLM + 10% dialyzed FBS, 5.12 µM
[10] = HPLM + 10% dialyzed FBS, 15.4 µM
[11] = HPLM + 10% dialyzed FBS, 46.1 µM
[12] = RPMI 5 mM glucose + 10% FBS, 0.000781 µM
[13] = RPMI 5 mM glucose + 10% FBS, 0.00234 µM
[14] = RPMI 5 mM glucose + 10% FBS, 0.00702 µM
[15] = RPMI 5 mM glucose + 10% FBS, 0.0211 µM
[16] = RPMI 5 mM glucose + 10% FBS, 0.0632 µM
[17] = RPMI 5 mM glucose + 10% FBS, 0.19 µM
[18] = RPMI 5 mM glucose + 10% FBS, 0.569 µM
[19] = RPMI 5 mM glucose + 10% FBS, 1.71 µM
[20] = RPMI 5 mM glucose + 10% FBS, 5.12 µM
[21] = RPMI 5 mM glucose + 10% FBS, 15.4 µM
[22] = RPMI 5 mM glucose + 10% FBS, 46.1 µM
[23] = RPMI 5 mM glucose + 10% dialyzed FBS, 0.000781 µM
[24] = RPMI 5 mM glucose + 10% dialyzed FBS, 0.00234 µM
[25] = RPMI 5 mM glucose + 10% dialyzed FBS, 0.00702 µM
[26] = RPMI 5 mM glucose + 10% dialyzed FBS, 0.0211 µM
[27] = RPMI 5 mM glucose + 10% dialyzed FBS, 0.0632 µM
[28] = RPMI 5 mM glucose + 10% dialyzed FBS, 0.19 µM
[29] = RPMI 5 mM glucose + 10% dialyzed FBS, 0.569 µM
[30] = RPMI 5 mM glucose + 10% dialyzed FBS, 1.71 µM
[31] = RPMI 5 mM glucose + 10% dialyzed FBS, 5.12 µM
[32] = RPMI 5 mM glucose + 10% dialyzed FBS, 15.4 µM
[33] = RPMI 5 mM glucose + 10% dialyzed FBS, 46.1 µM

Structure (SMILES)	cell viability [1] [%]	cell viability [2] [%]	cell viability [3] [%]	cell viability [4] [%]	cell viability [5] [%]	cell viability [6] [%]	cell viability [7] [%]	cell viability [8] [%]	cell viability [9] [%]	cell viability [10] [%]	cell viability [11] [%]	cell viability [12] [%]	cell viability [13] [%]	cell viability [14] [%]	cell viability [15] [%]	cell viability [16] [%]	cell viability [17] [%]	cell viability [18] [%]	cell viability [19] [%]	cell viability [20] [%]	cell viability [21] [%]	cell viability [22] [%]	cell viability [23] [%]	cell viability [24] [%]	cell viability [25] [%]	cell viability [26] [%]	cell viability [27] [%]	cell viability [28] [%]	cell viability [29] [%]	cell viability [30] [%]	cell viability [31] [%]	cell viability [32] [%]	cell viability [33] [%]
C[N]1C=C(C2=CC=CC=C12)\C3=C(\C(=O)NC3=O)C4=C[N](C5CCN(CC5)CC6=NC=CC=C6)C7=C4C=CC=C7	110	116	115	119	118	123	120	118	118	120	117	118	126	119	115	118	123	127	124	116	116	125											
OC1=CC=C(C=C1)\C2=C\OC3=C(C(=CC(=C3)O)O)C2=O	107	114	112	118	114	116	119	118	118	117	122	103	104	116	107	116	126	116	125	115	115	85.9	103	105	108	112	119	114	120	116	95	113	69.5
CCc1cc(C(N)=S)ccn1	116	115	120	126	124	122	127	114	104	93.7	80.2	108	121	118	115	122	134	119	128	114	103	104	111	124	119	120	121	129	122	120	104	95.9	86.5
CC(C)(S)[C@@H](N)C(=O)O	108	112	115	120	106	120	113	122	117	115	108	100	109	114	121	96.1	112	118	121	115	125	99.5	104	110	103	115	98	109	107	112	114	111	95.8
C=C1C(=O)[C@@]23C(CC[C@@H]1[C@H]2O)[C@@]12CO[C@]3(O)[C@@H](O)[C@@H]1C(C)(C)CC[C@@H]2O (some centres undefined)	108	119	120	123	122	115	113	112	89.1	44.7	3.48	116	116	119	119	132	118	113	95.5	85.7	16.6	3.61	116	117	126	123	125	124	111	105	75.6	21.9	3.49
ClC1=CC=C2N/C3=N/C(=O)CN3CC2=C1Cl	120	122	126	130	115	122	118	115	114	112	82.2												125	119	130	117	124	127	118	118	107	105	68.7
NC[C@@H]1O[C@H](O[C@H]2[C@@H](O)[C@H](O[C@@H]3[C@@H](O)[C@H](N)C[C@H](N)[C@H]3O[C@H]3O[C@H](CN)[C@@H](O)[C@H](O)[C@H]3N)O[C@@H]2CO)[C@H](N)[C@@H](O)[C@@H]1O.O=S(=O)(O)O.O=S(=O)(O)O.O=S(=O)(O)O	108	96.4	108	107	105	107	103	103	107	99.5	98.3	102	97.9	104	98	103	97.6	101	98	100	96.4	96	105	100	105	103	96.8	102	102	93.3	94.6	97.9	93.4
CCN1\C=C(\C(O)=O)C(=O)C2=C1N=C(N3CCNCC3)C(=C2)F	75.4	89.2	85.8	94.9	91.8	93.7	94.1	91.9	91.4	92.2	84.1	72.1	82.1	76	86.3	80.7	81.6	79.4	78.4	85.7	83.6	81	74.1	82.6	77.7	90.3	84.1	76.9	88.7	83.3	77.2	83.4	95.1
CC[S+](=O)([O-])Nc1ccc2c(c1)/C(=C(/Nc1ccc(CN3CCCCC3)cc1)c1ccccc1)C(=O)N2	106	114	115	109	111	12.9	11.6	18.7	27.1	54.3	32.2	127	116	120	119	114	14.3	17.4	30.7	35.3	51.4	21.4	123	117	121	118	121	22.6	25.8	47.3	52	59.8	18.8
C[C@]12Cc3cn[nH]c3C[C@@H]1CC[C@@H]1[C@@H]2CC[C@@]2(C)[C@H]1CC[C@]2(C)O	105	116	113	113	125	110	98.1	107	101	120	103	108	64.2	123	112	120	109	102	106	113	110	93.7	97.4	112	111	97.2	106	111	105	99.6	96.9	97.5	93.1
O=C(CS(=O)Cc1ccco1)NC/C=C\COc1cc(CN2CCCCC2)ccn1 (centres undefined)	90.8	98.6	100	98	101	102	107	104	107	112	100	87.7	88	93.3	99.8	104	98.7		96.4	109	94.4	109	78.9	87.4	87.2	97.4	101	94.4	95.9	92.3	93.2	105	99.3
N#Cc1ccc(Oc2ccc3c(c2)COB3O)cc1	112	119	123	90.6	129	125	125	102	81.5	80.6	33.9	117	120	127	81.7	135	125	139	138	123	124	53.1	119	117	113	83.9	132	120	135	139	130	124	38.6
C=C1C(=O)OC(CCCCCCCC)C1C(=O)O (centres undefined)	105	116	113	122	123	122	124	121	129	120	115	124	120	123	132	129	122	137	132	128	129	128	107	116	122	129	124	123	133	131	133	128	113
COc1cc(Nc2c(C#N)cnc3cc(OCCCN4CCN(C)CC4)c(OC)cc23)c(Cl)cc1Cl	112	112	110	110	117	120	120	97.6	42.4	4.36	4.46	103	123	112	115	121	122	122	109	54.2	6.74	5.61	111	110	126	128	124	127	129	105	64.5	7.05	5.93
NC(=O)[C@H]1CCS[C@@H]2C[C@]3(CCCN3C(=O)Cc3ccc(NC(=O)COc4ccc(Cl)cc4Cl)cc3)C(=O)N12	113	115	120	110	114	101	73.1	16.5	18.6	18.5	12.8	110	109	120	111	128	110	106	40.3	16.5	22.9	17.5	124	120	130	134	127	125	116	70.3	28.7	39.2	23.8
CCOc1cc2ncc(C#N)c(Nc3ccc(F)c(Cl)c3)c2cc1NC(=O)/C=C/CN(C)C	118	116	131	122	116	71.7	80.9	61.1	41.6	21.1	2.69	121	120	123	128	121	95.2	85.3	71.9	57.6	26.3	5.42											
